In assay [1] the test system is LTB4 production from IgE-stimulated RBL-2H3 cells. The experiment in a line: Suppressing action on LTB4 production from IgE-stimulated RBL-2H3 cells. Format: cell-based. Particulars: Rattus norvegicus, 10 min, IgE/DNP-BSA stimulated RBL-2H3 cells, read-out: LTB4 production suppression ratio. An excerpt: (§1) 2. Suppressing Action on PGD2 and LTB4 Production from IgE-Stimulated RBL-2H3 Cells
(§2) Suppressing action on PGD2 and LTB4 production caused by IgE as an allergic stimulant was investigated by the following method. Cells of RBL-2H3, which is a rat mastocytoma cell line (purchased from ATCC), were suspended in DEMEM medium (GIBCO) containing 10% fetal bovine serum (BioFluid), inoculated to each well of 48-well culture plate at a density of 2×10^4 cells/well and cultured overnight. Then, IgE antiserum directed to dinitrophenylated BSA (henceforth DNP-BSA) was further added to each well, and the cells were cultured for 30 minutes. Then, the medium was changed to DEMEM medium containing 0.5% fetal bovine serum, a test compound was added with each well, and DNP-BSA was further added at a final concentration of 100 ng/ml as a stimulant. Ten minutes after the stimulant was added, the culture supernatant was collected, and the PGD2 concentration and LTB4 concentration in the culture supernatant were measured by using EIA kit (CAYMAN). By using a well which was not added with the stimulant as a negative control and a well which was added only with the stimulant as a positive control, suppressing ratios on mediator production were calculated from the production amounts of the mediators in the well added with the test compound using the following equation. PGD2 or LTB4 production suppression ratio=[1−(C−B)/(A−B)]×100 • A: PGD2 or LTB4 production amount of positive control • B: PGD2 or LTB4 production amount of negative control • C: PGD2 or LTB4 production amount in well added with test compound
(§3) Further, as control compounds for comparison, reference compound (1), 3-(2-cyclohexylmethyloxy-1,1′-biphenyl-5-yl)propionic acid described in WO99/19291, reference compounds (2) and (3), [2-(5,6,7,8-tetrahydro-5,5,8,8-tetramethyl-2-naphthalenyl)methyloxy-1,1′-biphenyl-5-yl]carboxylic acid [reference compound (2)] and 3-[3′-carboxy-2-(5,6,7,8-tetrahydro-5,5,8,8-tetramethyl-2naphthalenyl)methyloxy-1,1′-biphenyl-6-yl]propionic acid [reference compound (3)] described in U.S. Pat. No. 5,391,817 and Japanese Patent Unexamined Publication (Kokai) No. 7-22399, respectively, were used, and activities thereof were similarly measured.

In assay [2] the test system is PGE2 production from IL-1β-stimulated MG-63 cells. Nature of the assay: Suppressing action on PGE2 production from IL-1β-stimulated MG-63 cells. In kind it is cell-based. To be noted: Homo sapiens, IL-1β 1 ng/ml, 18 hours, read-out: PGE2 production suppression ratio. An outline of the steps: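 Human osteosarcoma MG-63 cells (2×10^4/well) switched to 0.5% FBS medium, treated with compound, then stimulated with IL-1β at 1 ng/ml final for 18 h. Supernatant PGE2 measured by EIA; suppression ratio calculated against stimulated and unstimulated wells.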

Assay [3] deals with PGD2 production from IgE-stimulated RBL-2H3 cells. The experiment in a line: Suppressing action on PGD2 production from IgE-stimulated RBL-2H3 cells. Format: cell-based. To be noted: Rattus norvegicus, 10 min, IgE/DNP-BSA stimulated RBL-2H3 cells, read-out: PGD2 production suppression ratio.
Excerpt: as §1, §2, §3

For assay [4], the system named is zymosan-stimulated footpad edema. Nature of the assay: Mouse zymosan-stimulated footpad edema reaction. Particulars: ICR female mice, oral 0.1 to 500 mg/kg, compared with positive control group. In kind it is in vivo. As to the method:
3. Suppressing Effect on Mouse Zymosan-stimulated Footpad Edema Reaction A suppressing effect on footpad edema caused by zymosan as an inflammatory stimulant was studied by the following method. Groups of ICR female mice (6- to 7-week old) each consisting of eight mice were used for the test. A test compound was suspended or dissolved in purified water containing 0.5% methylcellulose and orally administered to the test animals at 0.1 to 500 mg/0.2 ml/kg. To the control group, purified water containing 0.5% methylcellulose was administered in a similar manner, which was not added with a test compound. One hour after the administration of the test compound, 0.02 ml of a suspension of zymosan suspended in physiological saline (Otsuka Pharmaceutical) at 1 mg/ml was subcutaneously administered to right hind leg footpad of each mouse. One and two hours after the administration of the zymosan suspension, volume of the right hind leg footpad was measured by using an apparatus for measuring a volume of mouse hind leg footpad edema (Unicom). A difference of the volume of footpad measured above and the footpad volume before the administration of the test compound measured beforehand was regarded as a volume of the edema. For the volume of the edema at 1 hour or 2 hours after the zymosan administration, a graph was prepared by indicating time in abscissa and the edema volume in ordinate, and an edema volume AUC (area under the curve) was obtained up to 2 hours by calculation using the following equation. Edema volume AUC (1·hour)=1/2×1×A+1×(A+B)/2 • A: Edema volume 1 hour after zymosan administration • B: Edema volume 2 hour after zymosan administration A suppression ratio on edema of test compound was obtained by calculation using the following equation. Edema suppression ratio (%)=[1−B/A]×100 • A: Edema volume AUC of positive control • B: Edema volume AUC of test compound administered group (2) Measurement Results

Take `O=C(O)CCc1ccc(OC2CCCC2)c(-c2ccc3[nH]ccc3c2)c1` [Compound 102, 3-[4-cyclopentyloxy-3-(1H-indol-5-yl)phenyl]propionic acid]: the inhibition at 0.4 µM in assay [1], in assay [2] and in assay [3] was at least 50% in each case. Further, the “suppression of footpad edema caused by zymosan” value (from here on “suppression”) in assay [4] is recorded as “suppressed footpad edema”.
For the molecule `O=C(O)CCc1ccc(OC2CCCCC2)c(-c2ccc3[nH]ccc3c2)c1` [Compound 104, 3-[4-cyclohexyloxy-3-(1H-indol-5-yl)phenyl]propionic acid], the inhibition at 0.4 µM in assay [1], in assay [2] and in assay [3] was at least 50% in each case. The “suppression” value in assay [4] was “suppressed footpad edema”.
Consider `Cn1ccc2cc(-c3cc(CCC(=O)O)ccc3OC3CCCCC3)ccc21` [Compound 110, 3-[4-cyclohexyloxy-3-(1-methyl-1H-indol-5-yl)phenyl]propionic acid], for which the inhibition at 0.4 µM in assay [1], in assay [2] and in assay [3] was at least 50% in each case. In addition, the “suppression” value in assay [4] is given as “suppressed footpad edema”.
`O=C(O)CCc1ccc(OCc2ccccc2F)c(-c2ccc3[nH]ccc3c2)c1` [Compound 142, 3-[4-(2-fluorophenylmethyloxy)-3-(1H-indol-5-yl)phenyl]propionic acid]: the inhibition at 0.4 µM in assay [1], in assay [2] and in assay [3] was at least 50% in each case. Also, the “suppression” value in assay [4] was “suppressed footpad edema”.
Consider `O=C(O)CCc1ccc(OCc2ccccc2Cl)c(-c2ccc3[nH]ccc3c2)c1` [Compound 148, 3-[4-(2-chlorophenylmethyloxy)-3-(1H-indol-5-yl)phenyl]propionic acid], for which the inhibition at 0.4 µM in assay [1], in assay [2] and in assay [3] was at least 50% in each case. The “suppression” value in assay [4] was “suppressed footpad edema”.
As to `O=C(O)CCc1ccc(OCc2cccc(Cl)c2)c(-c2ccc3[nH]ccc3c2)c1` [Compound 150, 3-[4-(3-chlorophenylmethyloxy)-3-(1H-indol-5-yl)phenyl]propionic acid], the inhibition at 0.4 µM in assay [1], in assay [2] and in assay [3] was at least 50% in each case. In assay [4], the “suppression” value is “suppressed footpad edema”.
Take `O=C(O)CCc1ccc(OCc2ccc(Cl)cc2)c(-c2ccc3[nH]ccc3c2)c1` [Compound 152, 3-[4-(4-chlorophenylmethyloxy)-3-(1H-indol-5-yl)phenyl]propionic acid]: the inhibition at 0.4 µM in assay [1], in assay [2] and in assay [3] was at least 50% in each case. Besides, in assay [4], the “suppression” value is “suppressed footpad edema”.
On to `O=C(O)CCc1ccc(OCc2ccccc2Br)c(-c2ccc3[nH]ccc3c2)c1` [Compound 154, 3-[4-(2-bromophenylmethyloxy)-3-(1H-indol-5-yl)phenyl]propionic acid], for which the inhibition at 0.4 µM in assay [1], in assay [2] and in assay [3] was at least 50% each time. Also, the “suppression” value in assay [4] was “suppressed footpad edema”.
On to `O=C(O)CCc1ccc(OCc2ccc(-c3ccccc3)cc2)c(-c2ccc3[nH]ccc3c2)c1` [Compound 179, 3-{4-[(biphenyl-4-yl)methyloxy]-3-(1H-indol-5-yl)phenyl}propionic acid], for which the inhibition at 0.4 µM in assay [1], in assay [2] and in assay [3] was at least 50% each time. The “suppression” value in assay [4] is recorded as “suppressed footpad edema”.
As to `Cc1ccc(CCOc2ccc(CCC(=O)O)cc2-c2ccc3[nH]ccc3c2)cc1` [Compound 204, 3-{3-(1H-indol-5-yl)-4-[2-(4-methylphenyl)ethyloxy]phenyl}propionic acid], the inhibition at 0.4 µM in assay [1], in assay [2] and in assay [3] was at least 50% throughout. The “suppression” value in assay [4] was “suppressed footpad edema”.
On to `Cn1ccc2cc(-c3cc(CCC(=O)O)ccc3OCC3CCCC3)ccc21` [Compound 235, 3-[4-cyclopentylmethyloxy-3-(1-methyl-1H-indol-5-yl)phenyl]propionic acid], for which the inhibition at 0.4 µM in assay [1], in assay [2] and in assay [3] was at least 50% throughout. Besides, in assay [4], the “suppression” value was “suppressed footpad edema”.
Consider `CCn1ccc2cc(-c3cc(CCC(=O)O)ccc3OC3CCCC3)ccc21` [Compound 246, 3-[4-cyclopentyloxy-3-(1-ethyl-1H-indol-5-yl)phenyl]propionic acid], for which the inhibition at 0.4 µM in assay [1], in assay [2] and in assay [3] was at least 50% each time. Besides, the “suppression” value in assay [4] is reported as “suppressed footpad edema”.
Take `Nc1nc2ccc(-c3cc(CCC(=O)O)ccc3OC3CCCCC3)cc2s1` [Compound 295, 3-[3-(2-aminobenzothiazol-6-yl)-4-cyclohexyloxyphenyl]propionic acid]: the inhibition at 0.4 µM in assay [1], in assay [2] and in assay [3] was at least 50% each time. For the same molecule, the “suppression” value in assay [4] was “suppressed footpad edema”.

Values taken from patent publication US6867320B2, “Substituted phenylalkanoic acid derivatives and use thereof” (Asahi Kasei Pharma Corporation, priority 2002, dated 2005).
